The text below walks through data of patent publication US20240279232A1, “USE OF SUBSTITUTED 5-(4-METHYL-6-PHENYL-4H-BENZO[F]IMIDAZO[1,5-A][1,4] DIAZEPIN-3-YL)-1,2,4-O[…] THE TREATMENT OF INFLAMMATORY CONDITIONS” (priority 2021, published 2024).

The inhibition is the drop in the measured response relative to a control, in per cent. Broadly, the pKi is −log10 of the Ki, conventionally taken in molar units.

The target in assay [1] is T1, KOR (κ opioid receptor) (Homo sapiens, UniProt P41145).
T1 construct: expressed in transfected cells; host or cells: HEK293 (stably transfected)
The assay is described as follows: KOR radioligand binding ([3H]-U69593, HEK293 cell homogenates). The following applies: for inhibition at 10 µM: Percent inhibition at 10,000 nM. The procedure:
(§1) Radioligand binding assays. Detailed protocols for the primary and secondary radioligand binding assays can be found in the National Institute of Mental Health's Psychoactive Drug Screening Program (NIMH PDSP) Assay Protocol Book (Roth, 2018). Briefly, primary and secondary radioligand binding assays are carried out in a final of volume of 125 μL per well in appropriate binding buffer. […] Total binding and nonspecific binding are determined in the absence and presence of 10 μM of appropriate reference compound (Naltrindole DOR, Salvinorin A KOR and DAMGO MOR). In brief, plates are usually incubated at room temperature and in the dark for 90 min. Reactions are stopped by vacuum filtration onto 0.3% polyethyleneimine (PEI) soaked 96-well filter mats using a 96-well Filtermate harvester, followed by three washes with cold PBS buffer. Scintillation cocktail is then melted onto the microwave-dried filters on a hot plate and radioactivity counted in a Microbeta counter. The data (n=6) were analyzed by nonlinear regression.
(§2) Ligand affinities were determined for KOR (κ opioid receptor), DOR (δ opioid receptor), and MOR (μ opioid receptor) using radioligand binding assays at a screening concentration of 10,000 nM. For these assays, cell homogenates from HEK293 cells that overexpressed KOR, MOR, and DOR were used in combination with [^3H]-U69593, [^3H]-DAMGO, and [^3H]-DADLE, respectively Compounds that exceeded more than 50% radioligand displacement were investigated further in concentration-dependent experiments to determine Ki values. Gamma aminobutyric acid type A receptor (GABAAR) binding was determined with rat brain homogenate and ^3H-flunitrazepam. Flunitrazepam binds GABAAR subtypes that consists of two α and two β subunits and one γ or δ subunit. Strong affinities to α1-3,5,6β1-3γ1-y/δ GABAARS have been reported for flunitrazepam. The […] GABAAR subtype expression in the brain includes 43% α1β2γ2, 15% α2β3γ2+8% α2βγ1, 10% α3β3γ2, 6% α4βγ/δ, 4% α5β3γ2, and 4% α6β2γ2/δ. Therefore, compounds with high affinity toward the synaptic benzodiazepine-sensitive receptors (BZR) predominately bind α1-3β2-3γ1-2 GABAARs. Alternatively, compounds with weak BZR binding might be selective for α4-6βγ/δ GABAARs.
(§3) Psychoactive Drug Screening Program. Detailed protocols for the primary and secondary radioligand binding assays can be found in the National Institute of Mental Health's Psychoactive Drug Screening Program (NIMH PDSP) Assay Protocol Book. Briefly, primary and secondary radioligand binding assays are carried out in a final of volume of 125 μL per well in appropriate binding buffer. The radioactive ligand concentration is close to the Kd. Total binding and nonspecific binding are determined in the absence and presence of 10 μM of appropriate reference compound, respectively. In brief, plates are usually incubated at room temperature and in the dark for 90 min. Reactions are stopped by vacuum filtration onto 0.3% polyethyleneimine (PEI) soaked 96-well filter mats using a 96-well Filtermate harvester, followed by three washes with cold PBS buffer. Scintillation cocktail is then melted onto the microwave-dried filters on a hot plate and radioactivity counted in a Microbeta counter. The data (n=6) were analyzed by nonlinear regression.

In assay [2] the target is T2, MOR (μ opioid receptor) (Homo sapiens, UniProt P35372).
T2 construct: expressed in transfected cells; host or cells: HEK293
The assay is described as follows: MOR radioligand binding ([3H]-DAMGO, HEK293 cell homogenates). The following applies: Percent inhibition at 10,000 nM; [3H]-DAMGO. The procedure: as §1, §2, §3

For assay [3], the target named is T3, DOR (δ opioid receptor) (Homo sapiens, UniProt P41143).
T3 construct: expressed in transfected cells; host or cells: HEK293
Kind of assay: DOR radioligand binding ([3H]-DADLE, HEK293 cell homogenates). The following applies: Percent inhibition at 10,000 nM; [3H]-DADLE. The protocol: as §1, §2, §3

Assay [4] relates to BZR (benzodiazepine site of GABAAR). Kind of assay: GABAAR/BZR binding, rat brain homogenate with 3H-flunitrazepam. The following applies: rat brain homogenate, 3H-flunitrazepam; for BZR %: Percent inhibition at 10,000 nM. The procedure:
as §2, §3

Assay [5] deals with Mouse microglia. Kind of assay: NO production (Griess assay), LPS/IFNγ-activated mouse microglia. The following applies: with 50 μM MP-IV-010; flumazenil 50 μM, picrotoxin 50 μM, bicuculline 100 μM, SM-21 30 μM, norbinaltorphimine 30 μM. Type of assay: cell-based. The procedure:
Next, a library of GABAAR ligands was investigated to identify compounds that reduce the production of NO as a marker of anti-inflammatory activity. […] NO was quantified with a Greiss assay. Cell viability was determined with CellTiter-Glo.
Cell culture. A) HMC3 Microglia (CRL-3304) were maintained in treated cell culture flasks (Nunc, 156472) with EMEM (Corning, 10010CV) supplemented with 10% heat-inactivated FBS (Corning, 35011CV) and 100 U/mL penicillin and 100 μg/mL streptomycin (Hyclone, SV30010). Cultures were maintained at 37° C. and 5% CO2. When cells reached a density of 7×10^4 cells/mL, cultures were passaged with 0.25% Trypsin (Corning, 25-053-CI) and resuspended to a density no lower than 10,000 cells/mL. B) Human and mouse microglia cell lines were a gift from Dr. David Alvarez-Carbonell at Case Western Reserve University (Cleveland, OH). Microglia were cultured in cell culture treated flasks (Nunc, 156472) with DME/F12 media (Hyclone, SH30023.01) supplemented with 10% heat-inactivated FBS (Corning, 35011CV), 100 U/mL penicillin/100 μg/mL streptomycin (Hyclone, SV30010), and Normocin (Invivogen, ant-nr). Cultures were maintained at 37° C. and 5% CO2. […] Cultures were maintained at 37° C. and 5% CO2. Cells were passaged when they reached a density of approximately 3×10^6 cells/mL using cell scrapers (VWR, 10062-906) to lift cells from flask surface and resuspended at densities of approximately 500,000 cells/mL.
Nitric oxide production (Griess assay) and viability assay (CellTiter-Glo). 80 μL of mouse microglia culture (1×10^6 cells/mL) was plated into sterile 384 well plates representing non-activated wells. The remaining culture was activated with 50 ng/ml LPS (Invivogen, NC9836) and 150 U/mL IFNγ (R&D Systems, 485MI100) and distributed into the 384 well plates. […] Assay plates were incubated for approximately 24 hours (unless otherwise noted) at 37° C., centrifuged, and 40 μL of supernatant transferred to a new plate for analysis using the Griess Assay (Promega, Madison, WI). Absorbance at 530 nm was measured using a TECAN Infinite M1000 plate reader. The remaining 40 μL containing cells was analyzed for toxicity by the CellTiter-Glo Assay (Promega, Madison, WI). Luminescence was read using a TECAN Infinite M1000 plate reader.
For orientation: Nitrite, measured by Griess reagent, commonly stands in for NO production.

[6] abbreviates: concentration-dependent, [3H]-U69593, read-out: KOR (Ki).

pKi: −log10 of the molar value. Read-outs that look alike come from different tables or passages of the source.

T2 sequence (P35372 whole entry, species assumed): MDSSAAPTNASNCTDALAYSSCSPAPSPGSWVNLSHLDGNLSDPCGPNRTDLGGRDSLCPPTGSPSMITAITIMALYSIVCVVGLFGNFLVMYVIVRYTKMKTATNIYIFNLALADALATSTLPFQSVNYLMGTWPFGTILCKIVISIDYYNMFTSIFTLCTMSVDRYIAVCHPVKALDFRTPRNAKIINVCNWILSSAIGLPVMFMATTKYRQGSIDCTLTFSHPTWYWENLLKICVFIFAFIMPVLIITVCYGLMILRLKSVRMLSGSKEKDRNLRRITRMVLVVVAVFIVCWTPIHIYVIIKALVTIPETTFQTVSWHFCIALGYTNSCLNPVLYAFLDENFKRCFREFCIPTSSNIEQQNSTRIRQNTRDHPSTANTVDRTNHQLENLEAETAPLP
T1 sequence (P41145 whole entry): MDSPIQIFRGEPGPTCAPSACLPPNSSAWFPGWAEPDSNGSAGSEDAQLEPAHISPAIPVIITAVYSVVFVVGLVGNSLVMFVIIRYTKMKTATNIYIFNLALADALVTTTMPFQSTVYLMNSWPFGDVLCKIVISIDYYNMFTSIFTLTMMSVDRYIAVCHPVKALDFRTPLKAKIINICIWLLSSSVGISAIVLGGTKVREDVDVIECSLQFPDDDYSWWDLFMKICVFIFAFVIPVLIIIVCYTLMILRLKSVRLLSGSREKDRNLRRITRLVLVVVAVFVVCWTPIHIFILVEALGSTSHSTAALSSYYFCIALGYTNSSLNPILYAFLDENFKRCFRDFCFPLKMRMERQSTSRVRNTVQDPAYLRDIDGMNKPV
T3 sequence (P41143 whole entry): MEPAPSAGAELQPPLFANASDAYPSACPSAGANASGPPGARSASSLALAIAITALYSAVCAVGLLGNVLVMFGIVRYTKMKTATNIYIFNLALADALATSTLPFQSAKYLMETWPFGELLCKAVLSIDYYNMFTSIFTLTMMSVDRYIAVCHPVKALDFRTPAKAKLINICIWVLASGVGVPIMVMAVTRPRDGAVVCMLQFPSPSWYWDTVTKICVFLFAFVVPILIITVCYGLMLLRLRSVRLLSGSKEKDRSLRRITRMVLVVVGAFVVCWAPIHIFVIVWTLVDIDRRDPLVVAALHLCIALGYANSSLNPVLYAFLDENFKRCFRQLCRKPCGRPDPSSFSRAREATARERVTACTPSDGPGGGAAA

In the case of `C#Cc1ccc2c(c1)C(c1ccccc1F)=N[C@@H](C)c1c(C(=O)OC(C)C)ncn1-2` [GL-I-31], the inhibition at 10 µM in assay [1] ([3H]-U69593) amounted to 94%; in assay [2], 32%; in assay [3] it was 8%. The pKi is 7.19 in assay [1] (setting [6]) and 6.61 in assay [4]. Also, in assay [4], the BZR % came to 97%.
With `C#Cc1ccc2c(c1)C(c1ccccc1F)=N[C@@H](C)c1c(C(=O)OCCC)ncn1-2` [GL-I-32], the inhibition at 10 µM came to 95% in assay [1] ([3H]-U69593), 9% in assay [2] and 14% in assay [3]. The pKi is 7.19 in assay [1] (setting [6]) and 6.83 in assay [4]. In assay [4], the BZR % is 98%.
For the molecule `C#Cc1ccc2c(c1)C(c1ccccc1F)=N[C@@H](C)c1c(C(=O)OC(C)(C)CC)ncn1-2` [GL-I-33], the inhibition at 10 µM in assay [1] ([3H]-U69593) amounted to 94%; in assay [2], 30%; in assay [3], 25%. In addition, the values for the pKi in assay [1] (setting [6]) and in assay [4] were 7.47 and 6.93, respectively. Moreover, the BZR % in assay [4] is on record as 96%.
Take `C#Cc1ccc2c(c1)C(c1ccccc1F)=N[C@@H](C)c1c(C(=O)OCC(F)(F)F)ncn1-2` [GL-I-36]: the inhibition at 10 µM came to 85% in assay [1] ([3H]-U69593), 8% in assay [2] and 0% in assay [3]. Also, the results for the pKi in assay [1] (setting [6]) and in assay [4] were 6.39 and 6.38, respectively. Also, in assay [4], the BZR % is reported as 77%.
`C#Cc1ccc2c(c1)C(c1ccccc1F)=N[C@@H](C)c1c(C(=O)OC3CC3)ncn1-2` [GL-I-38]: the inhibition at 10 µM in assay [1] ([3H]-U69593) was 95%; in assay [2], 18%; in assay [3] it was 16%. Besides, the values for the pKi in assay [1] (setting [6]) and in assay [4] were 7.17 and 6.90, respectively. The BZR % in assay [4] came out at 96%.
On to `C#Cc1ccc2c(c1)C(c1ccccc1F)=N[C@@H](C)c1c(C(=O)NC(C)(C)C)ncn1-2` [GL-I-41], for which the inhibition at 10 µM was determined as 97% in assay [1] ([3H]-U69593), 40% in assay [2] and 10% in assay [3]. The pKi in assay [1] (setting [6]) was 7.41; in assay [4], 6.85. Also, the BZR % in assay [4] is 90%.
With `C#Cc1ccc2c(c1)C(c1ccccc1F)=N[C@@H](C)c1c(C(=O)NCC)ncn1-2` [GL-I-43], the inhibition at 10 µM in assay [1] ([3H]-U69593) was determined as 95%; in assay [2], 22%; in assay [3], 3%. The pKi in assay [1] (setting [6]) is 6.99; in assay [4], 7.36. In addition, in assay [4], the BZR % came to 94%.
For `C#Cc1ccc2c(c1)C(c1ccccc1F)=N[C@@H](C)c1c(C(=O)N(C)C)ncn1-2` [GL-I-54], the inhibition at 10 µM in assay [1] ([3H]-U69593) turned out to be 78%; in assay [2], 18%; in assay [3] it was 11%. The results for the pKi in assay [1] (setting [6]) and in assay [4] were 6.10 and 7.05, respectively. For the same molecule, the BZR % in assay [4] is recorded as 94%.
As for `C#Cc1ccc2c(c1)C(c1ccccc1F)=N[C@@H](C)c1c(C(=O)NC3CC3)ncn1-2` [GL-I-55], the values for the inhibition at 10 µM in assay [1] ([3H]-U69593), in assay [2] and in assay [3] were 93%, 17% and 24%, respectively. Also, the figures for the pKi in assay [1] (setting [6]) and in assay [4] were 6.82 and 7.70, respectively. In assay [4], the BZR % is 95%.
Take `C#Cc1ccc2c(c1)C(c1ccccc1F)=N[C@@H](C)c1c(C(=O)SCC)ncn1-2` [GL-I-77]: the inhibition at 10 µM in assay [1] ([3H]-U69593) is 95%; in assay [2] it was 41%; in assay [3], 4%. In addition, the pKi in assay [1] (setting [6]) is 6.90; in assay [4], 6.91. Besides, in assay [4], the BZR % is reported as 92%.
Take `CCOC(=O)c1ncn2c1[C@H](C)N=C(c1ccccc1F)c1cc(C3CC3)ccc1-2` [GL-I-78]: the negative-log Ki (pKi) in assay [1] is 7.32; in assay [4], 6.45. Besides, the inhibition at 10 µM in assay [1] ([3H]-U69593) was 96%; in assay [2] it was 32%; in assay [3], 41%. The BZR % in assay [4] was found to be 76%.
As for `C#Cc1ccc2c(c1)C(c1ccccn1)=N[C@H](C)c1c(C(=O)O)ncn1-2` [GL-II-30], the inhibition at 10 µM came out at 0% in assay [1] ([3H]-U69593), 20% in assay [2] and 4% in assay [3]. In assay [4], the BZR % was determined as 65%. The pKi in assay [4] is 6.37.
`C#Cc1ccc2c(c1)C(c1ccccn1)=N[C@H](C)c1c(C(=O)NC)ncn1-2` [GL-II-31]: the inhibition at 10 µM in assay [1] ([3H]-U69593) is 23%; in assay [2], 17%; in assay [3], 3%. In assay [4], the BZR % came out at 72%. Also, the pKi in assay [4] is 5.77.
For `C#Cc1ccc2c(c1)C(c1ccccn1)=NCc1c(C(=O)OCC)ncn1-2` [Hz-166], the inhibition at 10 µM in assay [1] ([3H]-U69593) is 60%; in assay [2], 6%; in assay [3] it was 49%. Besides, the pKi in assay [1] (setting [6]) was 5.42.
For the molecule `CCC(Oc1ccc(Cl)cc1)C(=O)OC1CC2CCC(C1)N2C` (stereo not drawn) [SM-21, reference compound], the “reversal of the NO reduction by MP-IV-010 (in words)” value (from here on “reversal of the NO reduction”) in assay [5] is reported as “no reversal”.
With `CCOC(=O)c1ncn2c1CN(C)C(=O)c1cc(F)ccc1-2` [flumazenil, Flumazenil, reference compound], the “reversal of the NO reduction” value in assay [5] is given as “did not reverse”.
The same measure, in the same setting: for `Oc1ccc2c3c1O[C@H]1c4[nH]c5c(c4C[C@@]4(O)[C@@H](C2)N(CC2CC2)CC[C@]314)C[C@@]1(O)[C@H]2Cc3ccc(O)c4c3[C@@]1(CCN2CC1CC1)[C@H]5O4` [norbinaltorphimine, reference compound] the value was “reversed the effects of MP-IV-010”.
Turning to picrotoxin [reference compound], the “reversal of the NO reduction” value in assay [5] is reported as “did not reverse”.
